In paper PMC8954769, “Development of an LC-MS/MS Method for ARV-110, a PROTAC Molecule, and Applications to Pharmacokinetic Studies” (Molecules, 2022):
One block for each molecule: values may come before it.

Tests used:
[1] = In vitro plasma stability, human; assay type: in vitro ADME; settings: 37 °C, incubation 4 h, read-out: T1/2 in plasma
Description: (§1) The stabilities of ARV-110 in the hepatic microsomal fraction and plasma were investigated for three species (human, rat, and mouse). For the microsomal stability study, a reaction mixture containing hepatic microsomes (protein concentration, 0.5 mg/mL) and 1 mM NADPH in phosphate buffer (pH 7.4) was pre-incubated in a thermomixer (5 min, 37 °C, 200 rpm). To initiate the metabolic reaction, 5 μL of ARV-110 in methanol (100 μM) was added to the pre-incubated mixture to obtain a final ARV-110 concentration of 1 μM. The metabolic reactions of buspirone and verapamil were conducted simultaneously as positive controls. For plasma stability measurements, 5 μL of ARV-110 in methanol (100 μM) was added to pre-warmed blank plasma to obtain a final ARV-110 concentration of 1 μM. Procaine was used to control plasma stability. The temperature was maintained and agitation was continued throughout the reaction, and sampling was conducted at predetermined time points (0 (beginning of the reaction), 15; 30; 60; 120; […] min). For the microsomal and plasma stability measurements, the reaction was conducted for 120 and 240 min, respectively. […] The elimination rate constant (ke) was determined as the slope of the linear regression between the log of the percentage of analyte remaining and the incubation time. […]

[2] = Stability of ARV-110 QC samples in rat plasma under storage conditions; assay type: in vitro ADME
Description: (§2) The sample stability in rat and mouse plasma was evaluated at low and high QC concentrations. The short-term stability was evaluated at room temperature for 1 h, whereas the long-term stability was determined by assaying samples stored at −20 °C for 4 weeks. […] The freeze–thaw stability was tested by subjecting samples to three freeze–thaw cycles.

[3] = Pharmacokinetic study in mice (IV and PO); assay type: in vivo, ICR mice; settings: mouse; for bioavailability: oral 5 mg/kg vs IV 2 mg/kg, after dose normalization
Description: (§3) The validated LC-MS/MS method was applied to determine ARV-110 in pharmacokinetic studies in rats and mice. Animal studies were approved in advance by the Institutional Animal Care and Use Committee of Chungnam National University (202103A-CNU-053; Daejeon, Republic of Korea). Male Sprague Dawley (SD) rats (7 weeks old, 210–251 g) and male ICR mice (6 weeks old, 25–32 g) were purchased from Orient Bio Inc. (Seongnam, Republic of Korea). Their habitat was maintained under a 12 h light–dark cycle at a room temperature of 20–25 °C and a relative humidity of 40–60%. The animals had free access to food and water. Food fasting was started 14 or 4 h prior to drug administration to rats and mice, respectively. After drug administration, the animals were not given food or water for another 4 h.
The drug solution for the pharmacokinetic study in mice was prepared by dissolving ARV-110 in DMSO–PEG400–Cremophor EL–saline (5:30:2.5:62.5, v/v/v/v). The drug solution was administered via an IV bolus into the tail vein at a dose of 2 mg/kg or PO at a dose of 5 mg/kg. Blood samples (50 μL) were alternatively collected from the right retro-orbital plexus at 0.05 (IV only), 0.12, 0.5, 1, 2, 4, 8, 24, and 48 h after ARV-110 administration. Plasma was obtained by centrifuging the blood at 17,600× g for 5 min, and a 20 μL aliquot of plasma was stored at −20 °C until analysis.
(§4) For plasma sample preparation, 20 μL of rat or mouse plasma was added to 20 μL of IS solution (10 μg/mL) and 110 μL of acetonitrile. After vigorous mixing for 10 min, the mixture was centrifuged at 13,500 rpm for 10 min. An aliquot of the supernatant (100 μL) was collected for analysis. Cmax and Tmax were determined directly from the plasma concentration–time profile of each animal. To determine other pharmacokinetic parameters, the experimental data were analyzed using Phoenix® 8.2 software (Certara L.P., Princeton, NJ, USA), as described previously. All data are presented as mean ± SD.

[4] = Pharmacokinetic study in rats (IV and PO); assay type: in vivo, Sprague Dawley (SD) rats; settings: rat; for bioavailability: oral 5 mg/kg vs IV 2 mg/kg
Description: as §3
The drug solution for the pharmacokinetic study in rats was prepared by dissolving ARV-110 in a dimethyl sulfoxide (DMSO)–PEG400–Cremophor EL–saline (5:40:5:50, v/v/v/v). The drug solution was administered to the rats via a single IV bolus into the tail vein at a dose of 2 mg/kg or PO using a gavage needle at a dose of 5 mg/kg. Blood samples (100 μL) were collected from the jugular vein using heparinized syringes at 0.083 (IV only), 0.25, 0.5, 1, 2, 4, 6, 8, 24, and 48 h after ARV-110 administration. Plasma was collected from the blood by centrifugation, and a 20 μL aliquot of plasma was stored at −20 °C until analysis.
as §4

[5] = parameters: method as in doi:10.1200/JCO.2020.38.15_suppl.3500; settings: preliminary data from a phase I clinical trial; cited from earlier work
AR = tested on: AR; parameters: method as in PMID 31885879, PMID 30271980; settings: various prostate cancer cell lines; cited from earlier work
[6] = Hepatic microsomal metabolic stability, mouse; assay type: in vitro ADME; settings: 1 mM NADPH, 37 °C
Description: as §1

resistance models = tested on: resistance models; parameters: method as in PMID 31885879, PMID 30271980; settings: cited from earlier work
[7] = Stability of ARV-110 QC samples in mouse plasma under storage conditions; assay type: in vitro ADME
Description: as §2

[8] = In vitro plasma stability, rat; assay type: in vitro ADME; settings: 37 °C, incubation 4 h, read-out: T1/2 in plasma
Description: as §1

[9] = Hepatic microsomal metabolic stability, human; assay type: in vitro ADME; settings: 1 mM NADPH, 37 °C
Description: as §1

[10] = Hepatic microsomal metabolic stability, rat; assay type: in vitro ADME; settings: 1 mM NADPH, 37 °C
Description: as §1

[11] = In vitro plasma stability, mouse; assay type: in vitro ADME; settings: 37 °C, incubation 4 h, read-out: T1/2 in plasma
Description: as §1

[12] = parameters: method as in PMID 34355087; settings: cited from earlier work
[13] = 15 min at room temperature (25 °C), nominal 5 ng/mL
[14] = 15 min at room temperature (25 °C), nominal 2500 ng/mL
[15] = 1 h at room temperature (25 °C), nominal 5 ng/mL
[16] = 1 h at room temperature (25 °C), nominal 2500 ng/mL
[17] = 4 h on ice cold, nominal 5 ng/mL
[18] = 4 h on ice cold, nominal 2500 ng/mL
[19] = Freeze–thaw (3 cycles), nominal 5 ng/mL
[20] = Freeze–thaw (3 cycles), nominal 2500 ng/mL
[21] = Long term (4 weeks at −20 °C), nominal 5 ng/mL
[22] = Long term (4 weeks at −20 °C), nominal 2500 ng/mL
[23] = Processed sample (autosampler, 10 °C, 24 h), nominal 5 ng/mL
[24] = Processed sample (autosampler, 10 °C, 24 h), nominal 2500 ng/mL
[25] = male, ICR, in vivo, intravenous, 2 mg/kg
[26] = male, ICR, in vivo, oral, 5 mg/kg
[27] = male, Sprague Dawley, in vivo, intravenous, 2 mg/kg
[28] = male, Sprague Dawley, in vivo, oral, 5 mg/kg

half-life at 1 μM [1]: 0.4 h | Stability in Rat Plasma (%) [2, 13]: 100.6 ± 7.8% | Stability in Rat Plasma (%) [2, 14]: 96.99 ± 2.27% | Stability in Rat Plasma (%) [2, 15]: 68.73 ± 7.74% | Stability in Rat Plasma (%) [2, 16]: 68.82 ± 1.08% | Stability in Rat Plasma (%) [2, 17]: 92.20 ± 1.38% | Stability in Rat Plasma (%) [2, 18]: 92.21 ± 2.24% | Stability in Rat Plasma (%) [2, 19]: 103.2 ± 3.9% | Stability in Rat Plasma (%) [2, 20]: 101.8 ± 3.4% | Stability in Rat Plasma (%) [2, 21]: 100.6 ± 5.6% | Stability in Rat Plasma (%) [2, 22]: 100.5 ± 5.0% | Stability in Rat Plasma (%) [2, 23]: 99.60 ± 2.91% | Stability in Rat Plasma (%) [2, 24]: 102.6 ± 4.1% | ARV-110 remained in QC samples ([2]; rat plasma, short-term storage, 1 h at 25 °C): approximately 69% | AUC(0-inf) [3, 25]: 11300 ng·h/mL | AUC(0-t) [3, 25]: 10800 ng·h/mL | Cmax [3, 25]: 1260 ± 99 ng/mL | MRT [3, 25]: 13.1 ± 0.9 h | Tmax [3, 25]: 0.05 h | clearance [3, 25]: 3.02 mL/min/kg | half-life [3, 25]: 11.4 ± 0.51 h | Vd ([3]; male, ICR, in vivo, intravenous, 2 mg/kg, read-out: Vss): 2.37 ± 0.402 L/kg | AUC(0-inf) [3, 26]: 10700 ng·h/mL | AUC(0-t) [3, 26]: 9870 ± 1000 ng·h/mL | Cmax [3, 26]: 612 ± 88.4 ng/mL | MRT [3, 26]: 12.9 ± 0.84 h | Tmax [3, 26]: 4.8 ± 1.79 h | half-life [3, 26]: 14.6 ± 2.48 h | bioavailability ([3]; male, ICR, in vivo, 5 mg/kg, read-out: Bioavailability): 37.9% | bioavailability [3]: 37.89 ± 4.16% | AUC(0-inf) [4, 27]: 4860 ± 381 ng·h/mL | AUC(0-t) [4, 27]: 4530 ± 288 ng·h/mL | Cmax [4, 27]: 2520 ± 292 ng/mL | MRT [4, 27]: 10.2 ± 0.48 h | Tmax [4, 27]: 0.083 h | clearance [4, 27]: 6.89 mL/min/kg | half-life [4, 27]: 13.6 ± 1.43 h | Vd ([4]; male, Sprague Dawley, in vivo, intravenous, 2 mg/kg, read-out: Vss): 5.78 ± 0.32 L/kg | AUC(0-inf) [4, 28]: 2890 ± 318 ng·h/mL | AUC(0-t) [4, 28]: 2420 ± 222 ng·h/mL | Cmax [4, 28]: 110 ± 9.2 ng/mL | MRT [4, 28]: 16.4 ± 1.16 h | Tmax [4, 28]: 5.5 ± 1.92 h | half-life [4, 28]: 17.7 ± 3.21 h | bioavailability ([4]; male, Sprague Dawley, in vivo, 5 mg/kg, read-out: Bioavailability): 23.8% | bioavailability [4]: 23.83 ± 2.62% | drug remaining after incubation for 2 h ([6]; mouse hepatic microsomes 0.5 mg/mL, 1 μM): 80.95% | half-life at 1 μM ([6]; pH 7.4, mouse hepatic microsomes 0.5 mg/mL, read-out: elimination half-life (T1/2) in hepatic microsomes): 6.92 h | Stability in Mouse Plasma (%) [7, 13]: 99.43 ± 2.93% | Stability in Mouse Plasma (%) [7, 14]: 95.74 ± 5.74% | Stability in Mouse Plasma (%) [7, 15]: 83.70 ± 14.24% | Stability in Mouse Plasma (%) [7, 16]: 78.91 ± 4.93% | Stability in Mouse Plasma (%) [7, 17]: 93.01 ± 5.30% | Stability in Mouse Plasma (%) [7, 18]: 94.09 ± 5.23% | Stability in Mouse Plasma (%) [7, 19]: 104.0 ± 6.1% | Stability in Mouse Plasma (%) [7, 20]: 103.2 ± 4.1% | Stability in Mouse Plasma (%) [7, 21]: 97.97 ± 10.23% | Stability in Mouse Plasma (%) [7, 22]: 97.59 ± 3.78% | Stability in Mouse Plasma (%) [7, 23]: 98.77 ± 3.58% | Stability in Mouse Plasma (%) [7, 24]: 98.62 ± 3.54% | ARV-110 remained in QC samples ([7]; mouse plasma, short-term storage, 1 h at 25 °C): ~80% | half-life at 1 μM [8]: 0.733 h | drug remaining after incubation for 2 h ([9]; human hepatic microsomes 0.5 mg/mL, 1 μM): 92.07% | half-life at 1 μM ([9]; pH 7.4, human hepatic microsomes 0.5 mg/mL, read-out: elimination half-life (T1/2) in hepatic microsomes): 16.4 h | half-life at 1 μM ([10]; pH 7.4, rat hepatic microsomes 0.5 mg/mL, read-out: elimination half-life (T1/2) in hepatic microsomes): 36.9 h | drug remaining after incubation for 2 h ([10]; rat hepatic microsomes 0.5 mg/mL, 1 μM): 96.60% | half-life at 1 μM [11]: 1.55 h
SMILES: N#Cc1ccc(O[C@H]2CC[C@H](NC(=O)c3ccc(N4CCC(CN5CCN(c6cc7c(cc6F)C(=O)N(C6CCC(=O)NC6=O)C7=O)CC5)CC4)nn3)CC2)cc1Cl (stereo partly drawn) [ARV-110, bavdegalutamide]
safety and tolerability in patients [5]: satisfactory safety and tolerability | degradation of AR (AR): 95–98% | reduction of tumor growth (resistance models): 70–100%

SMILES: Nc1cccc2c1C(=O)N(C1CCC(=O)NC1=O)C2=O (stereo not drawn) [pomalidomide]
logP [12]: 0.01 | pKa [12]: 1.89
